Laboratory results published in patent US11952584B2, “Functional peptides having antimicrobial activity against phytopathogenic microorganisms” (TOYOTA JIDOSHA KABUSHIKI KAISHA, priority 2019, dated 2024).
Several values for one entry are separate records, joined by “and”; a condition that tells them apart may be missing. Equal values may be shown once. Entries after “also recorded” stand apart in the source; their conditions may differ. Read-outs that look alike come from different tables or passages of the source. Ends that are not written are not given here.

B1: mdfimlaaaivkesfiflligllaaILLSLEIFERKFSRSVWYYGFPAFSERTRKFWRIWKGK TS (peptide, listed as Solanum lycopersicum)
chain: MDFIMLAAAIVKESFIFLLIGLLAAILLSLEIFERKFSRSVWYYGFPAFSERTRKFWRIWKGKTS
notes: peptide of 65 amino acid residues from tomato xylem sap

Experiments:
Botrytis cinerea [1] = test: Botrytis cinerea leaf inoculation test (tomato leaf); type: in vivo; details: for Leaf inoculation test Tomato/Botrytis cinerea: peptide 100 μM, 2 days, lesions by visual inspection; for inhibitory effects against Botrytis cinerea (in words): tomato leaf inoculation test, not shown in the figures
Protocol: In the present example, a suspension comprising Botrytis cinerea and a peptide to be tested was dropped on a plant leaf, and lesions were then observed by visual inspection to evaluate the antimicrobial activity of the tested peptide. First, the pores of Botrytis cinerea were suspended in a potato dextrose broth (PDB) to result in a spore concentration of 5×10^5 spores/ml, so as to prepare a PDB suspension spore solution. Subsequently, a peptide to be tested (TsORF18-2) was added to the PDB suspension spore solution, so that the final concentration of the peptide to be tested became 0 μM, 1 μM, 10 μM or 100 μM. It is to be noted that, as peptides to be tested, TsORF18 (full length) and TsORF18-40 a.a. were also used in the same manner as that of TsORF18-2. TsORF18 (full length) was dissolved in DMSO and was then used. On the other hand, TsORF18-2 and TsORF18-40 a.a were each dissolved in Milli-Q water and were then used. Thereafter, 10 μl each of the PDB suspension spore solution containing the peptide to be tested was dropped on the front side and the back side of the leaf of tomato (variety name: “Ponte Rosa”). In this condition, incubation was carried out at 25° C. for 2 days. Thereafter, the front and back sides of the leaf were observed by visual inspection.

[2] = tested on: Colletotrichum destructivum; type: cell-based; details: for Plate antimicrobial activity test Colletotrichum destructivum (level): 25° C., 1 day or 2 days
Pyricularia oryzae = type: cell-based; details: for Plate antimicrobial activity test Pyricularia oryzae (level): 25° C., 1 day or 2 days
Botrytis cinerea [3] = type: cell-based; details: for Plate antimicrobial activity test Botrytis cinerea (level): 25° C., 1 day or 2 days
[4] = tested on: Colletotrichum destructivum; test: Colletotrichum destructivum leaf inoculation test (Chinese cabbage leaf); type: in vivo; details: 25° C.; for Leaf inoculation test Chinese cabbage/Colletotrichum destructivum: 4 days, lesions by visual inspection; for lesion of Colletotrichum destructivum (in words): 4 days (FIG. 3)
Source text: In the present example, a suspension comprising Colletotrichum destructivum and a peptide to be tested was dropped on a plant leaf, and lesions were then observed by visual inspection to evaluate the antimicrobial activity of the tested peptide. First, the pores of Colletotrichum destructivum were suspended in water to result in a spore concentration of 5×10^5 spores/ml, so as to prepare a water suspension of spores. Subsequently, peptides to be tested (TsORF18 (full length), TsORF18-40 a.a., and TsORF18-2) were each added to the water suspension of spores, so that the final concentration of the peptides to be tested became 0 μM, 1 μM, 10 μM or 100 μM. Thereafter, 10 μl each of the water suspension of spores containing the peptide to be tested was dropped on the front side and the back side of the leaf of Chinese cabbage (variety name: “Kigokoro 85”). In this condition, incubation was carried out at 25° C. for 4 days. Thereafter, the front and back sides of the leaf were observed by visual inspection.

[5] = tested on: Colletotrichum orbiculare; type: cell-based; details: for Plate antimicrobial activity test Collectotrichum orbiculare (level): 25° C., 1 day or 2 days
Fusarium oxysporum = type: cell-based
[6] = tested on: plant pathogenic filamentous fungi; type: cell-based; details: summary of Table 3
Ralstonia solanacearum = details: peptide 100 μM, 28° C. a whole day and night; for Inhibitory rate Ralstonia solanacearum: relative to water; for OD600 Ralstonia solanacearum: water control 2.6
[7] = tested on: Pseudomonas syringae pv. tomato
[8] = tested on: Erwinia carotovora subsp. carotovora
[9] = tested on: Xanthomonas oryzae pv. oryzae; details: for Inhibitory rate Xanthomonas oryzae pv. oryzae / OD600 Xanthomonas oryzae pv. oryzae: peptide 100 μM, 28° C. a whole day and night; for Inhibitory rate Xanthomonas oryzae pv. oryzae: relative to water; for OD600 Xanthomonas oryzae pv. oryzae: water control 2.1
[10] = plate test, microscopic observation (FIG. 1), concentration not given

Molecule	Leaf inoculation test Tomato/Botrytis cinerea (Botrytis cinerea [1]; tomato leaf, 25° C.)	Plate antimicrobial activity test Colletotrichum destructivum (level) ([2]; peptide 1 μM)	Plate antimicrobial activity test Colletotrichum destructivum (level) ([2]; peptide 10 μM)	Plate antimicrobial activity test Colletotrichum destructivum (level) ([2]; peptide 100 μM)	Plate antimicrobial activity test Pyricularia oryzae (level) (Pyricularia oryzae; peptide 1 μM)	Plate antimicrobial activity test Pyricularia oryzae (level) (Pyricularia oryzae; peptide 10 μM)	Plate antimicrobial activity test Pyricularia oryzae (level) (Pyricularia oryzae; peptide 100 μM)	Plate antimicrobial activity test Botrytis cinerea (level) (Botrytis cinerea [3]; peptide 1 μM)	Plate antimicrobial activity test Botrytis cinerea (level) (Botrytis cinerea [3]; peptide 10 μM)	Plate antimicrobial activity test Botrytis cinerea (level) (Botrytis cinerea [3]; peptide 100 μM)	Leaf inoculation test Chinese cabbage/Colletotrichum destructivum ([4]; peptide 1 μM)	Leaf inoculation test Chinese cabbage/Colletotrichum destructivum ([4]; peptide 10 μM)	Leaf inoculation test Chinese cabbage/Colletotrichum destructivum ([4]; peptide 100 μM)	Plate antimicrobial activity test Collectotrichum orbiculare (level) ([5]; peptide 1 μM)	Plate antimicrobial activity test Collectotrichum orbiculare (level) ([5]; peptide 10 μM)	Plate antimicrobial activity test Collectotrichum orbiculare (level) ([5]; peptide 100 μM)	Plate antimicrobial activity test Fusarium oxysporum (level) (Fusarium oxysporum)	germination inhibitory activity against plant pathogenic filamentous fungi (in words) [6]	Inhibitory rate Ralstonia solanacearum (Ralstonia solanacearum) [%]	OD600 Ralstonia solanacearum (Ralstonia solanacearum)	further results
RKFWRIWK (listed as Solanum lycopersicum) [TsORF18-2-8aa-12]	∘	0	0	3	0	0	0	0	1	3	Δ	∘	∘	0	0	3	3 and 2 and 0	extremely excellent germination inhibitory activity	–	–	–
TRKFWRIW (listed as Solanum lycopersicum) [TsORF18-2-8aa-11]	∘	0	0	3	0	0	0	0	0	3	–	∘	∘	0	0	3	3 and 0	extremely excellent germination inhibitory activity	–	–	–
KFWRIWKG (listed as Solanum lycopersicum) [TsORF18-2-8aa-13]	∘	0	0	3	0	0	0	0	0	3	–	∘	∘	0	0	3	3 and 2 and 0	extremely excellent germination inhibitory activity	–	–	–
YYGFPAFSERTRKFWRIWKGKT [TsORF18-2]	∘	0	2	3	0	0	3	1	3	3	∘	∘	∘	0	1	3	3 and 1 and 0	–	13.8	2.2	OD600 Pseudomonas syringae pv. tomato [7]: 1.9; Inhibitory rate Pseudomonas syringae pv. tomato ([7]; 100 μM): 25.3%; inhibition of growth of Pseudomonas syringae pv. tomato (in words) ([7]; 100 μM): could inhibit the growth; lesion of Botrytis cinerea (in words) (Botrytis cinerea [1]; 100 μM, tomato leaf, 25° C., 2 days (FIG. 2)): not observed; inhibition of germination of Colletotrichum destructivum (in words) [2, 10]: completely inhibited; also recorded: could inhibit germination; inhibition of germination of Pyricularia oryzae (in words) (Pyricularia oryzae; [10]): completely inhibited; also recorded: could inhibit germination; OD600 Erwinia carotovora subsp. cartovora [8]: 2.6; Inhibitory rate Erwinia carotovora subsp. cartovora ([8]; 100 μM): −39.2%; inhibition of germination of Botrytis cinerea (in words) (Botrytis cinerea [3]; [10]): completely inhibited; also recorded: could inhibit germination; lesion of Colletotrichum destructivum (in words) ([4]; any concentration of 1 μM, 10 μM or 100 μM): not observed; Inhibitory rate Xanthomonas oryzae pv. oryzae [9]: 90.1%; OD600 Xanthomonas oryzae pv. oryzae [9]: 0.2; inhibition of growth of Xanthomonas oryzae pv. oryzae (in words) ([9]; summary of Table 4, 100 μM): could inhibit the growth; inhibition of germination of Colletotrichum orbiculare (in words) [5, 10]: completely inhibited; also recorded: could inhibit germination; inhibition of germination of Fusarium oxysporum (in words) (Fusarium oxysporum): completely inhibited; also recorded: could inhibit germination
ILLSLEIFERKFSRSVWYYGFPAFSERTRKFWRIWKGKTS [TsORF18-40aa]	–	0	0	3	–	–	–	0	0	3	Δ	∘	∘	–	–	–	3 and 0	–	−7.7	2.8	OD600 Pseudomonas syringae pv. tomato [7]: 1.9; Inhibitory rate Pseudomonas syringae pv. tomato ([7]; 100 μM): 25.8%; inhibitory effects against Botrytis cinerea (in words) (Botrytis cinerea [1]): not observed; OD600 Erwinia carotovora subsp. cartovora [8]: 2.2; Inhibitory rate Erwinia carotovora subsp. cartovora ([8]; 100 μM): −18.1%; lesion of Colletotrichum destructivum (in words) ([4]; concentration of 10 μM or 100 μM): not observed; Inhibitory rate Xanthomonas oryzae pv. oryzae [9]: −5.8%; OD600 Xanthomonas oryzae pv. oryzae [9]: 2.2
B1	–	0	0	1	–	–	–	0	0	0	–	–	–	–	–	–	0	–	−0.9	2.6	Inhibitory rate Pseudomonas syringae pv. tomato [7]: −3.1%; OD600 Pseudomonas syringae pv. tomato [7]: 2.6; inhibitory effects against Botrytis cinerea (in words) (Botrytis cinerea [1]): not observed; Inhibitory rate Erwinia carotovora subsp. cartovora [8]: −3.7%; OD600 Erwinia carotovora subsp. cartovora [8]: 1.9; Inhibitory rate Xanthomonas oryzae pv. oryzae [9]: 6.5%; OD600 Xanthomonas oryzae pv. oryzae [9]: 2.0
